Test results: the NIST ThermoML archive (doi:10.1021/je100832h)

What was measured:
[1] = xn = mol fraction of the nth substance listed; settings: 101.32 kPa, Liquid, Vibrating tube method
[2] = excess molar enthalpy (molar enthalpy of mixing); xn = mol fraction of the nth substance listed; settings: 291.15 K, 101 kPa, Liquid, Calvet calorimetry

CCCCCCC [heptane] + CCOC(C)=O
[1], x2 = 0
Settings	mass density [kg/m3]
291.15 K	685.28
298.15 K	679.48
318.15 K	662.06
328.15 K	653.6

CCOC(C)=O [ethyl acetate] + CCCCCCCCCC
[1], x1 = 1
Settings	mass density [kg/m3]
291.15 K	902.88
298.15 K	894.4
318.15 K	869.6
328.15 K	857.17

CCOC(C)=O [ethyl acetate] + CCCCCCCC
[1], x1 = 1
Settings	mass density [kg/m3]
291.15 K	902.88
298.15 K	894.4
318.15 K	869.6
328.15 K	857.17

CCCCC [pentane] + CCOC(C)=O
[2]
Settings	excess molar enthalpy [kcal/mol]
x2 = 0.0628	0.0777
x2 = 0.1353	0.139
x2 = 0.2024	0.194
x2 = 0.2623	0.232
x2 = 0.3345	0.274
x2 = 0.4047	0.295
x2 = 0.4549	0.305
x2 = 0.514	0.307
x2 = 0.5664	0.3
x2 = 0.6434	0.283
x2 = 0.7049	0.256
x2 = 0.7712	0.221
x2 = 0.8427	0.175
x2 = 0.9116	0.118
x2 = 0.9483	0.065

mass density [kg/m3], [1]
Settings	291.15 K	298.15 K
x2 = 0	628.22	621.35
x2 = 0.0126	630.77	–
x2 = 0.026	–	626.34
x2 = 0.0577	640.44	–
x2 = 0.0607	–	633.6
x2 = 0.0897	–	639.94
x2 = 0.0922	648.09	–
x2 = 0.1609	–	655.94
x2 = 0.1813	668.69	–
x2 = 0.2315	–	672.51
x2 = 0.2507	685.25	–
x2 = 0.3028	–	690.12
x2 = 0.3232	703.25	–
x2 = 0.3576	–	703.99
x2 = 0.3916	721.01	–
x2 = 0.4301	–	722.92
x2 = 0.4566	738.23	–
x2 = 0.4703	–	733.71
x2 = 0.5276	–	749.44
x2 = 0.5296	758.09	–
x2 = 0.5916	775.48	–
x2 = 0.6517	792.81	–
x2 = 0.6553	–	785.76
x2 = 0.7126	–	802.69
x2 = 0.7164	812.13	–
x2 = 0.7725	–	820.79
x2 = 0.7788	831.21	–
x2 = 0.8245	–	836.93
x2 = 0.8582	856.32	–
x2 = 0.8825	–	855.3
x2 = 0.8961	868.57	–
x2 = 0.9342	–	872.31
x2 = 0.9693	892.55	–
x2 = 0.9896	–	890.79

CCOC(C)=O [ethyl acetate] + CCCCC
[1], x1 = 1
Settings	mass density [kg/m3]
291.15 K	902.88
298.15 K	894.4

CCCCCC [hexane] + CCOC(C)=O
[1], x2 = 0
Settings	mass density [kg/m3]
291.15 K	661.17
298.15 K	654.9
318.15 K	636.5
328.15 K	627

CCOC(C)=O [ethyl acetate] + CCCCCCCCC
[1], x1 = 1
Settings	mass density [kg/m3]
291.15 K	902.88
298.15 K	894.4
318.15 K	869.6
328.15 K	857.17
